# Source: patent US12435080B2, “sGC stimulators” (Tisento Therapeutics Inc., priority 2016, dated 2025)
# Several values for one entry are separate records, joined by “and”; a condition that tells them apart may be missing. Identical values can stand only once.
# Biological target: T1, sGC enzyme (Homo sapiens, UniProt Q02108+Q02153)
# T1 construct: incorporated into these cells detect cGMP formed by the compounds stimulating the sGC enzyme; host or cells: HEK293 cells stably expressing GloSensor 40F cGMP biosensor
# T1 sequence (Q02153 1-619): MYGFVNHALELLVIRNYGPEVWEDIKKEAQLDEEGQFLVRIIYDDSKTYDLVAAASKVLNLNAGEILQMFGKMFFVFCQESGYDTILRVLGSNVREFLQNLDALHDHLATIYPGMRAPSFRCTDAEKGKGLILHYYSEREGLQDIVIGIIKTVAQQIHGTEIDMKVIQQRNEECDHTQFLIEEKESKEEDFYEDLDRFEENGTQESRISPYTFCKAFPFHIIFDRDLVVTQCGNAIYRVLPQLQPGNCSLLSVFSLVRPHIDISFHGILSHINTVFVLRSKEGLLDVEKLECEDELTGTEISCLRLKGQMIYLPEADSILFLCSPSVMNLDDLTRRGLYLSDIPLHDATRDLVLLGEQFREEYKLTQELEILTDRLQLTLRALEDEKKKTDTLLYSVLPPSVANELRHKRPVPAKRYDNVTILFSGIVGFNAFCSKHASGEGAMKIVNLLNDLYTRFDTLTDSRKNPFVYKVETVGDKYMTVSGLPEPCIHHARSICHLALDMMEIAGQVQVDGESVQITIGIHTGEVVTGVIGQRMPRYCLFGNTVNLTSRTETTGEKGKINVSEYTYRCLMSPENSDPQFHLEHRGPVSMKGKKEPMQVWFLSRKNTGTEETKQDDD
# T1 sequence (Q02108 1-690): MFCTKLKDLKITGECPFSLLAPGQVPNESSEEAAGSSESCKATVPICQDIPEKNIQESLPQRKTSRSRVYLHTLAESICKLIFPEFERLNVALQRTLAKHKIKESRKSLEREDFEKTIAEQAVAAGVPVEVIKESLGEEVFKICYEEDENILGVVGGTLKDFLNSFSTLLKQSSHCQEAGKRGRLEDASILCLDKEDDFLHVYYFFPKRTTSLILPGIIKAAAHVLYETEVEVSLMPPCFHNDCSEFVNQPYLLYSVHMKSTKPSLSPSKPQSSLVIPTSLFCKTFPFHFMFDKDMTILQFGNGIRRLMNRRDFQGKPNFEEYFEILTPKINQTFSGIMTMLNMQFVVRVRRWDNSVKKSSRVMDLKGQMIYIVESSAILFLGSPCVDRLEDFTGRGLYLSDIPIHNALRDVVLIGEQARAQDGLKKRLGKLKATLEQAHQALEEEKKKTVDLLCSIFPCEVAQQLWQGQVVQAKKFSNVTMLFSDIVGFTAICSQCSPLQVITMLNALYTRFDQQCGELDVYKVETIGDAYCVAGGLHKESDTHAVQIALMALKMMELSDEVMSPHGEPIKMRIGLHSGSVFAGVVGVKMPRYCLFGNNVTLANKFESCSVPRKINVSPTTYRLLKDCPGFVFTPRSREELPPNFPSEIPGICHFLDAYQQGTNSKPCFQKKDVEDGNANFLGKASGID
# Experiment: cGMP GloSensor cell-based assay, 384-well format
# Details: HEK293 cells expressing GloSensor 40F cGMP; 10 μM DETA-NONOate; normalized to 30 μM Compound Y; compounds in Table IA; read-out: Glo-sensor AbsEC50
# Method in brief: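 HEK293 cells expressing GloSensor 40F cGMP luciferase biosensor, preloaded with 2 mM GloSensor substrate for 90 min at 25 °C. Endpoint luminescence read after 55 min compound incubation at room temperature.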
row,EC50,SMILES
1,0.1 to 1 µM,"FC(F)(F)c1n[nH]c(-c2nn(CCC(F)(F)C(F)(F)F)c3ncccc23)n1 [Compound I-2, 1-(3,3,4,4,4-pentafluorobutyl)-3-(3-(trifluoromethyl)-1H-1,2,4-triazol-5-yl)-1H-pyrazolo[3,4-b]pyridine]"
2,< 0.1 µM,"FC(F)(F)c1n[nH]c(-c2nn(Cc3cncnc3)c3ncccc23)n1 [Compound I-4, 1-(Pyrimidin-5-ylmethyl)-3-(3-(trifluoromethyl)-1H-1,2,4-triazol-5-yl)-1H-pyrazolo[3,4-b]pyridine]"
3,0.1 to 1 µM,"Fc1ccccc1Cc1nn(-c2nc(C(F)(F)F)n[nH]2)c2cccnc12 [Compound I-31, 3-(2-Fluorobenzyl)-1-(3-(trifluoromethyl)-1H-1,2,4-triazol-5-yl)-1H-pyrazolo[4,3-b]pyridine]"
4,< 0.1 µM,N#Cc1n[nH]c(-c2nn(Cc3ccccc3F)c3ncccc23)n1 [Compound I-41]
5,0.1 to 1 µM and < 0.1 µM,"Fc1cccc(Cn2nc(-c3nc(C(F)(F)F)n[nH]3)c3cccnc32)c1F [Compound I-48, 1-(2,3-Difluorobenzyl)-3-(3-(trifluoromethyl)-1H-1,2,4-triazol-5-yl)-1H-pyrazolo[3,4-b]pyridine]"
6,< 0.1 µM,"FC(F)(F)c1n[nH]c(-c2nn(Cc3ccccc3)c3ncccc23)n1 [Compound I-49, 1-Benzyl-3-(3-(trifluoromethyl)-1H-1,2,4-triazol-5-yl)-1H-pyrazolo[3,4-b]pyridine]"
7,< 0.1 µM,"Cc1ncc(Cn2nc(-c3nc(C(F)(F)F)n[nH]3)c3ccccc32)cn1 [Compound I-62, 1-((2-methylpyrimidin-5-yl)methyl)-3-(3-(trifluoromethyl)-1H-1,2,4-triazol-5-yl)-1H-indazole]"
8,< 0.1 µM,"OCc1n[nH]c(-c2nn(Cc3ccccc3F)c3ncccc23)n1 [Compound I-64, (5-(1-(2-fluorobenzyl)-1H-pyrazolo[3,4-b]pyridin-3-yl)-1H-1,2,4-triazol-3-yl)methanol]"
9,< 0.1 µM,"Fc1cccc(Cn2nc(-c3nc(Cl)n[nH]3)c3cccnc32)c1F [Compound I-86, 3-(3-Chloro-1H-1,2,4-triazol-5-yl)-1-(2,3-difluorobenzyl)-1H-pyrazolo[3,4-b]pyridine]"
10,< 0.1 µM,"Fc1ccccc1Cn1nc(-c2nc(C3CC3(F)F)n[nH]2)c2cccnc21 (stereo not drawn) [Compound I-96, 3-(3-(2,2-Difluorocyclopropyl)-1H-1,2,4-triazol-5-yl)-1-(2-fluorobenzyl)-1H-pyrazolo[3,4-b]pyridine]"
11,< 0.1 µM,"Fc1ccccc1Cc1nn(-c2nc(C(F)F)n[nH]2)c2cccnc12 [Compound I-101, 1-(3-(Difluoromethyl)-1H-1,2,4-triazol-5-yl)-3-(2-fluorobenzyl)-1H-pyrazolo[4,3-b]pyridine]"
12,< 0.1 µM,"Fc1cccc(Cc2nn(-c3nc(C(F)(F)F)n[nH]3)c3cccnc23)c1F [Compound I-105, 3-(2,3-Difluorobenzyl)-1-(3-(trifluoromethyl)-1H-1,2,4-triazol-5-yl)-1H-pyrazolo[4,3-b]pyridine]"
